Common to all, as to type: biochemical
One assay has as its target T1, full-length human PDE4D5 (Homo sapiens, UniProt Q08499).
T1 construct: stably expressed the full-length human PDE4D5, PDE4A4 and PDE4B1 long isoforms; made in house; cytosol fraction of cell lysate
The experiment in a line: PDE4D5 long form enzyme activation radio-assay (Experiment 1, Protocol A or B). The settings on record: for activation at 30 µM: mean % increase in counts over basal activity. An excerpt: (§1) Experiment 1: Identification of PDE4 Long Form Activators of the Present Invention Using Full-Length Human PDE4 Isoforms PDE4D5, PDE4A4, PDE4B1 and PDE4B2
(§2) HEK 293 cells were transfected with pDEST™ PDE4 expression vectors using Lipofectamine LTX/Plus reagent (Invitrogen) as outlined by the manufacturer and clonal isolates expanded to obtain cell lines that stably expressed the full-length human PDE4D5, PDE4A4 and PDE4B1 long isoforms and the full length human PDE4B2 short isoform. These were called the HEK-PDE4D5, HEK-PDE4A4, HEK-PDE4B1 and HEK-PDE4B2 cell lines, respectively.
(§3) HEK-PDE4D5 cells were seeded out in 100 mm plates and incubated at 37° C. in an atmosphere of 5% CO2, 95% air. Cell lysates were prepared using KHEM buffer [50 mM KCl, 10 mM EGTA, 50 mM HEPES (pH 7.2), 1.92 mM MgCl2].
(§4) To prepare the cell lysates, the 100 mm plates containing the cells were placed on ice and washed with ice-cold PBS (phosphate buffered saline, pH 7.4). KHEM buffer (500 μl) was added to the cells. Cells were then scraped off the plate and triturated using a needle (BD Microlance™ 0.8, 40 mm). The lysed cells were then centrifuged at 2000 rpm for 10 minutes to remove cell debris and the supernatant (cell lysate containing recombinant PDE4D5) was transferred to a fresh tube and kept on ice.
(§5) The cell lysate containing recombinant PDE4D5 was transferred into a centrifuge tube and placed into an ultracentrifuge (BECKMAN COULTER) and spun at high speed (100,000 g) for 30 minutes at 4° C. The cytosol fraction was then collected and its protein amount determined using a BCA protein assay.
(§6) PDE assays were performed using a final concentration of 10 mM Tris/5 mM MgCl2 and 1 μM [^3H]-cAMP (Perkin Elmer) plus PDE4D5 cell lysate cytosol fraction, containing over-expressed PDE4D5, with and without test compound. Incubations were performed at 30° C. for 5 minutes. The samples were then placed in a boiling water bath for 2 minutes to denature the PDE enzyme, and returned to ice. Samples were allowed to cool for 10 min after which snake venom 5′-nucleotidase (25 μl, 1 mg/ml; Sigma) was added. The tubes were vortexed and incubated in a water bath at 30° C. for 10 minutes, to attain conversion of [^3H]-5′-AMP to [^3H]-adenosine, and then placed on ice. Dowex ion exchange resin (Sigma) prepared as a 1:1 Dowex: water stock was thoroughly re-suspended and diluted 2:1 with ethanol. The resulting Dowex suspension (0.4 ml) was added to each tube. Tubes were vortexed to mix and then incubated on ice for at least 15 minutes before a final vortex. The Dowex resin was pelleted by centrifugation at 13,000 g at 4° C. for 3 minutes and 150 μl of the supernatant was removed to an Eppendorf tube containing 1 ml of ScintiSafe3 scintillation fluid (Fisher). Tubes were vortexed thoroughly to mix and the recovered [^3H]-adenosine was quantified by measuring counts over 1 minute in a scintillation counter.
(§7) The % increase in counts in the presence of test compound at a particular concentration indicates the % increase in enzyme activity at that concentration.
(§8) PDE assays were performed in thin walled V-bottomed 96-well plates. The assays were performed at a final concentration of 10 mM Tris/5 mM MgCl2 plus PDE4D5 cell lysate cytosol fraction, containing over-expressed PDE4D5, with and without test compound. The lysate/compound mix were incubated together for 15 min at room temperature on an orbital shaker prior to addition of [^3H] cAMP (final concentration 1 μM [^3H] cAMP; Perkin Elmer) to a final volume of 50 μl per reaction. The reactions were then incubated for 10 minutes at 30° C., terminated by heating for 2 min at 95° C. and allowed to cool. Snake venom (12.5 μl of 1 mg/ml; Crotalus atrox, Sigma) was then added and the plates were agitated and incubated for a further 15 minutes at 30° C. […]

Another assay deals with T2, full-length human PDE4B2 (Homo sapiens, UniProt Q07343).
T2 construct: and the full length human PDE4B2 short isoform; made in house; cytosol fraction of cell lysate
T2 sequence (Q07343 1-564 isoform Q07343-2): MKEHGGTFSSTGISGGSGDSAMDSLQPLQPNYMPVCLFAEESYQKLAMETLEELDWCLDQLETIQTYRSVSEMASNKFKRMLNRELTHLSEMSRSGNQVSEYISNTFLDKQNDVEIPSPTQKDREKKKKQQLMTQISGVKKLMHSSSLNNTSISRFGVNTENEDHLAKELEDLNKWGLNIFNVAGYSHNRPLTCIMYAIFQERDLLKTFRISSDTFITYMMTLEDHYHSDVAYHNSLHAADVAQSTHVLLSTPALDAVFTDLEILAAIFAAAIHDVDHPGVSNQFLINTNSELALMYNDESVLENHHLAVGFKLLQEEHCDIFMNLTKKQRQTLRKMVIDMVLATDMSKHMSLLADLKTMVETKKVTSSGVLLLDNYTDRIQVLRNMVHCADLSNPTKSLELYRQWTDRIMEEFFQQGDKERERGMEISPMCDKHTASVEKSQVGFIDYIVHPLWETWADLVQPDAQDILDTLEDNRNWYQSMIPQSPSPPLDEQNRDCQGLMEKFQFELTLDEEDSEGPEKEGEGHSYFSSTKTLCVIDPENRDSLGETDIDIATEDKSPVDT
The experiment in a line: PDE4B2 short form enzyme activation radio-assay (Experiment 1, Protocol A or B). The settings on record: for activation at 30 µM: mean % increase in counts over basal activity.
Text: as §1, §2, §3, §4, §5, §6, §7, §8

A further assay deals with T3, full-length human PDE4B1 (Homo sapiens, UniProt Q07343).
T3 construct: stably expressed the full-length human PDE4D5, PDE4A4 and PDE4B1 long isoforms; made in house; cytosol fraction of cell lysate
T3 sequence (Q07343 whole entry, canonical isoform): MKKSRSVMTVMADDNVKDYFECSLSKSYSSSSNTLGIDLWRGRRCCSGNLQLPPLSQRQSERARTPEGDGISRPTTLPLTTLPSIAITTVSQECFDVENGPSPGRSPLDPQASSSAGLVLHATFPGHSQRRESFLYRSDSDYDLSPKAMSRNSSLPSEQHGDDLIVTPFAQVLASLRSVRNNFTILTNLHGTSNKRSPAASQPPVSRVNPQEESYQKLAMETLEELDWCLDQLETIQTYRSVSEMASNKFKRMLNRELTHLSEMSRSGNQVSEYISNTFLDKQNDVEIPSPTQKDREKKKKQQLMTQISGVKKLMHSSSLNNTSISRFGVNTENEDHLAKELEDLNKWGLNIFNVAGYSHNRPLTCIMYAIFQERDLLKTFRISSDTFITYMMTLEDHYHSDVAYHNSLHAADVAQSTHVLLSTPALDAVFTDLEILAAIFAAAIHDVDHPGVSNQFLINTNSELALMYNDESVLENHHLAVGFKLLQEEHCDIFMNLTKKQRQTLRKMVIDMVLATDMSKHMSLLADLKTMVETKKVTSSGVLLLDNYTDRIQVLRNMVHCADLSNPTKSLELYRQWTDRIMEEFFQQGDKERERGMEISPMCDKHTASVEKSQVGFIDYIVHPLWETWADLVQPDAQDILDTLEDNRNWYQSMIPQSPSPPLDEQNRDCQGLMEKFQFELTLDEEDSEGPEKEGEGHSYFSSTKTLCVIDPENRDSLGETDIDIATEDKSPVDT
The assay can be described thus: PDE4B1 long form enzyme activation radio-assay (Experiment 1, Protocol A or B). The settings on record: mean % increase in counts over basal activity.
Text: as §1, §2, §3, §4, §5, §6, §7, §8

T1 sequence (Q08499 1-745 isoform Q08499-6): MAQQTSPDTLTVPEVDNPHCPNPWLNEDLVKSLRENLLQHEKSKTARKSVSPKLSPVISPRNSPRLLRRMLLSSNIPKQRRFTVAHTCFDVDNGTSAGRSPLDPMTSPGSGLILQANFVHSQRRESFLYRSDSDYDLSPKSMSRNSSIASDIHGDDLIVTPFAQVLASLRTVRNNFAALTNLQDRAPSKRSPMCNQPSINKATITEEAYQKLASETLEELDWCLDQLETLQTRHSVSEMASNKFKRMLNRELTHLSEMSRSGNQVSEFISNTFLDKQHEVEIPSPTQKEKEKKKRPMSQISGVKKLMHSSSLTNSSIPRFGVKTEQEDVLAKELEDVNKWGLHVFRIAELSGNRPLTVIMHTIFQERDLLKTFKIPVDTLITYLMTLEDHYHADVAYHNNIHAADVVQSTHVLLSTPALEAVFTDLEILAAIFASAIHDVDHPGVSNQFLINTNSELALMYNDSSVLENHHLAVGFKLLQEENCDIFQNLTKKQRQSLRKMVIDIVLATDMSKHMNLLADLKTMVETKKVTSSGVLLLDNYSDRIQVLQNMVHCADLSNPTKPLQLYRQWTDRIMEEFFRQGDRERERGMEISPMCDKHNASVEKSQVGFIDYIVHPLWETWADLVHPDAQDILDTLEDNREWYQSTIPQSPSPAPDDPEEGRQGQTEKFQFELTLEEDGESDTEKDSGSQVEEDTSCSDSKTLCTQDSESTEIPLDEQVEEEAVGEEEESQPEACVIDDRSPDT

`CCOC(=O)c1cc(-c2ccc(Cl)cc2)nn1CC(=O)NCc1cccc(OC)c1` [Example 27, Ethyl 3-(4-chlorophenyl)-1-{[(3-methoxybenzyl)carbamoyl]methyl}-1H-pyrazole-5-carboxylate]: the activation at 30 µM on full-length human PDE4D5 (Protocol B) worked out at 75.1%; on full-length human PDE4B2 (Protocol B), 7.6%.

For the compound `CCOC(=O)c1nc(-c2ccc(Cl)c(F)c2)nn1CC(=O)NCc1cccc(OC)c1` [Example 5, Ethyl 3-(4-chloro-3-fluorophenyl)-1-{[(3-methoxybenzyl)carbamoyl]methyl}-1H-1,2,4-triazole-5-carboxylate], the activation at 30 µM at full-length human PDE4B1 (Protocol B) turned out to be 44%.

Consider `NC(=O)c1nc(-c2ccc(Cl)c(F)c2)nn1CC(=O)NCc1cccc(F)c1` [Example 8, 3-(4-chloro-3-fluorophenyl)-1-{[(3-fluorobenzyl)carbamoyl]methyl}-1H-1,2,4-triazole-5-carboxamide], for which the activation at 30 µM on full-length human PDE4B1 (Protocol A) was determined as 50.9%.

Regarding `COCCNC(=O)c1nc(-c2ccc(Cl)c(F)c2)nn1CC(=O)NCc1cccc(F)c1` [Example 20, 3-(4-chloro-3-fluorophenyl)-1-{[(3-fluorobenzyl)carbamoyl]methyl}-N-(2-methoxyethyl)-1H-1,2,4-triazole-5-carboxamide], the activation at 30 µM is 63.3% at full-length human PDE4D5 (Protocol B) and -22.4% at full-length human PDE4B2 (Protocol B).

Regarding `COC(=O)c1nc(-c2ccc(Cl)c(F)c2)nn1CC(=O)NCc1ccccc1` [Example 3, Methyl 1-[(benzylcarbamoyl)methyl]-3-(4-chloro-3-fluorophenyl)-1H-1,2,4-triazole-5-carboxylate], the results for the activation at 30 µM at full-length human PDE4D5 (Protocol A) and at full-length human PDE4B2 (Protocol A) were 62.6% and -0.9%, respectively.

`COCCNC(=O)c1nc(-c2ccc(Cl)c(F)c2)nn1CC(=O)NCc1cccc(OC)c1` [Example 21, 3-(4-chloro-3-fluorophenyl)-1-{[(3-methoxybenzyl)carbamoyl]methyl}-N-(2-methoxyethyl)-1H-1,2,4-triazole-5-carboxamide]: on full-length human PDE4D5 (Protocol B), the activation at 30 µM worked out at 105%.

On to `CCOC(=O)c1cc(-c2ccc(Cl)cc2)nn1CC(=O)NCc1cccc(F)c1` [Example 23, Ethyl 3-(4-chlorophenyl)-1-{[(3-fluorobenzyl)carbamoyl]methyl}-1H-pyrazole-5-carboxylate], for which the activation at 30 µM on full-length human PDE4D5 (Protocol B) stood at 93.7%.

Regarding `CNC(=O)c1nc(-c2ccc(Cl)c(F)c2)nn1CC(=O)NCc1cccc(OC)c1` [Example 12, 3-(4-chloro-3-fluorophenyl)-1-{[(3-methoxybenzyl)carbamoyl]methyl}-N-methyl-1H-1,2,4-triazole-5-carboxamide], the activation at 30 µM at full-length human PDE4B1 (Protocol B) amounted to 89.2%.

`CCOC(=O)c1nc(-c2ccc(Cl)c(F)c2)nn1CC(=O)NCc1ccccc1` [Example 2, Ethyl 1-[(benzylcarbamoyl)methyl]-3-(4-chloro-3-fluorophenyl)-1H-1,2,4-triazole-5-carboxylate]: the activation at 30 µM was 92.9% on full-length human PDE4D5 (Protocol A) and -2.5% on full-length human PDE4B2 (Protocol A). In addition, the “activation of PDE4 long form PDE4D5 (in words)” value at full-length human PDE4D5 (Protocol A, FIG. 1(a)) is given as “dose dependent activation”. Also, at full-length human PDE4B2 (Protocol A, FIG. 1(b)), the “activation of PDE4 short form PDE4B2 (in words)” value is given as “lack of activation”.

On to `COc1cccc(CNC(=O)Cn2nc(-c3ccc(Cl)c(F)c3)nc2C#N)c1` [Example 16, 2-[3-(4-chloro-3-fluorophenyl)-5-cyano-1H-1,2,4-triazol-1-yl]-N-(3-methoxybenzyl)acetamide], for which the activation at 30 µM on full-length human PDE4B1 (Protocol B) worked out at 52.2%.

As to `COc1cccc(CNC(=O)Cn2nc(-c3ccc(Cl)c(F)c3)nc2C(=O)N(C)C)c1` [Example 18, 3-(4-chloro-3-fluorophenyl)-1-{[(3-methoxybenzyl)carbamoyl]methyl}-N,N-dimethyl-1H-1,2,4-triazole-5-carboxamide], on full-length human PDE4D5 (Protocol B), the activation at 30 µM came to 83.9%.

As for `CCc1nc(-c2ccc(Cl)c(F)c2)cn1CC(=O)NCc1cc(Cl)cc(Cl)c1` [Example 30, 2-[4-(4-chloro-3-fluorophenyl)-2-ethyl-1H-imidazol-1-yl]-N-(3,5-dichlorobenzyl) acetamide], the activation at 30 µM on full-length human PDE4D5 (Protocol B) was determined as 87.6%.

Take `CCNC(=O)c1nc(-c2ccc(Cl)c(F)c2)nn1CC(=O)NCc1cccc(F)c1` [Example 19, 3-(4-chloro-3-fluorophenyl)-1-{[(3-fluorobenzyl)carbamoyl]methyl}-N-ethyl-1H-1,2,4-triazole-5-carboxamide]: at full-length human PDE4D5 (Protocol B), the activation at 30 µM was found to be 84.1%.

On to `CN(C)C(=O)c1nc(-c2ccc(Cl)c(F)c2)nn1CC(=O)NCc1cccc(F)c1` [Example 11, 3-(4-chloro-3-fluorophenyl)-1-{[(3-fluorobenzyl)carbamoyl]methyl}-N,N-dimethyl-1H-1,2,4-triazole-5-carboxamide], for which the activation at 30 µM at full-length human PDE4B1 (Protocol A) is 84.1%.

Turning to `CCc1nc(-c2ccc(Cl)c(F)c2)nn1CC(=O)NCc1cnc[nH]1` [Example 29, N-[(1H-imidazol-5-yl)methyl]-2-[3-(4-chloro-3-fluorophenyl)-5-ethyl-1H-1,2,4-triazol-1-yl]acetamide], at full-length human PDE4D5 (Protocol B), the activation at 30 µM was 31.9%.

Consider `CCOC(=O)c1nc(-c2ccc(Cl)c(F)c2)nn1CC(=O)NCc1cccc(F)c1` [Example 4, Ethyl 3-(4-chloro-3-fluorophenyl)-1-{[(3-fluorobenzyl)carbamoyl]methyl}-1H-1,2,4-triazole-5-carboxylate], for which the activation at 30 µM at full-length human PDE4B1 (Protocol B) worked out at 80.5%.

Regarding `CNC(=O)c1cc(-c2ccc(Cl)c(F)c2)nn1CC(=O)NCc1cccc(F)c1` [Example 26, 3-(4-chloro-3-fluorophenyl)-1-{[(3-fluorobenzyl)carbamoyl]methyl}-N-methyl-1H-pyrazole-5-carboxamide], the results for the activation at 30 µM on full-length human PDE4D5 (Protocol B) and at full-length human PDE4B2 (Protocol B) were 38.2% and 17.1%, respectively.

`COc1cccc(CNC(=O)Cn2nc(-c3ccc(Cl)c(F)c3)nc2C(N)=O)c1` [Example 9, 3-(4-chloro-3-fluorophenyl)-1-{[(3-methoxybenzyl)carbamoyl]methyl}-1H-1,2,4-triazole-5-carboxamide]: on full-length human PDE4B1 (Protocol A), the activation at 30 µM came out at 58.5%.

On to `O=C(Cn1nc(-c2ccc(Cl)c(F)c2)nc1C(=O)NC1CCCCC1)NCc1cccc(F)c1` [Example 22, 3-(4-chloro-3-fluorophenyl)-1-{[(3-fluorobenzyl)carbamoyl]methyl}-N-cyclohexyl-1H-1,2,4-triazole-5-carboxamide], for which the activation at 30 µM at full-length human PDE4D5 (Protocol B) was determined as 53.1%.

On to `COC(=O)c1cc(-c2cccc(OC)c2)nn1CC(=O)NCc1cccc(F)c1` [Example 24, Methyl 1-{[(3-fluorobenzyl)carbamoyl]methyl}-3-(3-methoxyphenyl)-1H-pyrazole-5-carboxylate], for which, on full-length human PDE4D5 (Protocol B), the activation at 30 µM was found to be 87.4%.

Turning to `COc1cccc(CNC(=O)Cn2nc(-c3ccc(Cl)c(F)c3)nc2C(=O)NC(C)C)c1` [Example 17, 3-(4-chloro-3-fluorophenyl)-1-{[(3-methoxybenzyl)carbamoyl]methyl}-N-isopropyl-1H-1,2,4-triazole-5-carboxamide], the activation at 30 µM on full-length human PDE4D5 (Protocol B) worked out at 81.1%.

As to `CNC(=O)c1cc(-c2ccc(Cl)c(F)c2)nn1CC(=O)NCc1cccc(OC)c1` [Example 25, 3-(4-chloro-3-fluorophenyl)-1-{[(3-methoxybenzyl)carbamoyl]methyl}-N-methyl-1H-pyrazole-5-carboxamide], the activation at 30 µM on full-length human PDE4D5 (Protocol B) came out at 39.5%; at full-length human PDE4B2 (Protocol B), 21%.

Source of the values: US11046660B2, “Compounds and their use as PDE4 activators” (MIRONID LIMITED, priority 2016, dated 2021).
